Laboratory results from US20250325566A1, “C[…]-9-TETRAHYDROCANNABINOL AND TERPENES” (Vertanical GmbH, priority 2022, published 2025).

Tested on: different cancer cell lines (MCF-7, HCT-116, CaCO2)
Assay: MTT cytotoxicity assay, single substances vs combination, different cancer cell lines
Type: cell-based
Conditions: THC + alpha-bisabolol + guaiol vs single substance, 48 h
Method: The following cell lines were used for the experiment: CaCO2 (Pharmacelsus), HCT-116 (ATCC, Cat #CCL-247), and MCF-7 (ECACC, Cat #86012803). All cell lines were maintained at 37° C., 5% CO2 and 95% humidity. The medium was replaced three times per week and the monolayer was sub-cultured in a ratio of 1:5 when the culture reaches a confluence of 80%. The specific cultivation medium for each cell line was as follows: CaCO2 cell line was cultured in DMEM (PAN-Biotech, Cat #P04-03500) supplemented with 10% FBS Good (PAN-Biotech, Cat #P40-37500) and 1% NEAA (PAN-Biotech, Cat #P08-32100), HCT-116 cell line was cultured in McCoy's A5 medium (PAN-Biotech, Cat #P04-05500) supplemented with 10% FBS Good, and MCF-7 cell line was cultured in RPMI 1640 (PAN-Biotech, Cat #P04-16500) supplemented with 10% FBS and 2 mM GlutaMAX (Gibco, Cat #35050). All cell culture media were routinely supplemented with 1% Penicillin/Streptomycin (PAN-Biotech, Cat #P06-07100).
For the cytotoxicity assay, cells were seeded into 96-well flat bottom microtiter plates at a density of 10,000 cells/well and allowed to attach to the plate for 24 hours before the start of the experiment. […]
Quantification of viable cells was performed by using commercial MTT assay kit (Cell Proliferation Kit I (MTT), Sigma, Cat #11465007001). […] The formazan crystals formed are solubilized and the resulting coloured solution is quantified.
Cells were prepared as described in Example 1.1. […] Conversion of MTT to formazan was recorded by measuring the absorbance at 570 nm with reference wavelength 650 nm by using a spectrophotometer (Spectramax Plus, Molecular Devices). […]

SMILES | IC50 values in combinatory treatment compared to single treatment
CCCCCc1cc(O)c2c(c1)OC(C)(C)[C@@H]1CCC(C)=C[C@@H]21 [THC, delta-9-tetrahydrocannabinol] | remain unchanged
CC(C)=CCC[C@](C)(O)[C@@H]1CC=C(C)CC1 [alpha-bisabolol] | remarkably reduced
C[C@H]1CC[C@@H](C(C)(C)O)CC2=C1CC[C@@H]2C [guaiol] | remarkably reduced
